Reference: ChEMBL document CHEMBL1201862, “PubChem BioAssay data set” (2004)
Active and inactive are the calls of the source.

Key:
[1] = viability of HCT116 lacking mutant beta-catenin – cell-based, human colon tumor, dose response (AID 1045); assay type: functional;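 also: HCT116 colon tumor cells with beta catenin knocked out; cells exposed to compound for 60 hours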
[2] = target: T1, DNA repair and recombination protein RAD54-like (Homo sapiens, UniProt Q92698); assay: RAD54 Holliday junction migration blockers – biochemical, fluorescence, cherry-picked samples, dose series, confirmation (AID 651657); assay type: functional
T1 sequence (Q92698 whole entry): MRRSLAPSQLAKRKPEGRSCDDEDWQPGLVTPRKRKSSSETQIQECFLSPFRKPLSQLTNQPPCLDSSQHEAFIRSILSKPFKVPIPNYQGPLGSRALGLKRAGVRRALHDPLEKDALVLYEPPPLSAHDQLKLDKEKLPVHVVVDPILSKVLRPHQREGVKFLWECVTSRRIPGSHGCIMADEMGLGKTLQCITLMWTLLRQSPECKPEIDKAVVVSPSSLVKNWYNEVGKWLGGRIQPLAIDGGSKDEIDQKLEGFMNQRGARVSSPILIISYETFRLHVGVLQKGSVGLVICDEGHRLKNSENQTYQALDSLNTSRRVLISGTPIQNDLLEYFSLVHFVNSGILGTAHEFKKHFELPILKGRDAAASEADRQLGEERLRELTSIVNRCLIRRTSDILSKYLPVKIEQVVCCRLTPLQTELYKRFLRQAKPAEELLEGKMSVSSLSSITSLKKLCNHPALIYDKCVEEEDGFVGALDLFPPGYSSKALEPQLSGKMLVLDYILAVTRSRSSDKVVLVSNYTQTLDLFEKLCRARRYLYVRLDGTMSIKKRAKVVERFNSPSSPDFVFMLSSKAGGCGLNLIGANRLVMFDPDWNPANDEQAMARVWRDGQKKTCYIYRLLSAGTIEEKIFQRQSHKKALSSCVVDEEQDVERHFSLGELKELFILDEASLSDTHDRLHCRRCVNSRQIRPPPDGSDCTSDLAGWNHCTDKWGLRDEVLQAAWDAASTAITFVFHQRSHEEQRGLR

[3] = NIH3T3 cell viability loss – ATP luminescence, mouse fibroblasts, counter-screen, dose response (AID 2010); assay type: functional, cell-based;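 also: cells exposed to compound for about 90 hours before reading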
[4] = viability of PTEN-deleted HCT116 cells – cell-based, HCT116 PTEN knockout, dose response (AID 1047); assay type: functional;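 also: HCT116 colon tumor cells with PTEN knocked out; cells exposed to compound for 60 hours before readout; potency for loss of cell viability measured by luminescence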
[5] = cytotoxicity toward MDA-MB-231 breast cancer cells – cell-based, CellTiter-Glo luminescence, cherry-pick, cytotoxicity control for RAD54 inhibitor project, dose response (AID 651692); assay type: functional
[6] = Trypanosoma cruzi growth suppression in host cells – NIH3T3 host cells, beta-gal luminescence, confirmation (AID 2044); assay type: functional, cell-based;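 also: intracellular parasites grown in NIH/3T3 mouse fibroblasts as host cells; luminescent beta-galactosidase reporter signal from transgenic T. cruzi replicating inside host cells; inhibitors lower the luminescence signal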
[7] = acridine orange displacement from DNA – biochemical, fluorescence polarization, cherry-pick, artefact control for RAD54 inhibitor project, dose response (AID 651673); assay type: functional
Mu-type opioid receptor = Mu-type opioid receptor (Homo sapiens, UniProt P35372); assay type: functional, cell-based;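 also: U2OS cells with beta-arrestin recruitment to OPRM1 by beta-gal complementation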
[8] = target: 5-hydroxytryptamine receptor 2A (Mus musculus, UniProt P35363); assay type: functional, cell-based;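 also: CHO-K1 cells with tagged receptor and beta-arrestin; agonist potency measured as compound-induced activation of the receptor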
[9] = Counterscreen for activators of the function of SWI/SNF related, matrix associated, actin dependent regulator of chromatin, subfamily a, member 2 (SMARCA2, BRM): Luminescence-based cell-based high throughput dose response assay to identify non-selective compounds using the VP16 reporter assay.; assay type: functional
[10] = target: SWI/SNF-related matrix-associated actin-dependent regulator of chromatin subfamily A member 2 (Homo sapiens, UniProt P51531); assay: Luminescence-based cell-based high throughput dose response assay to identify activators of the function of SWI/SNF related, matrix associated, actin dependent regulator of chromatin, subfamily a, member 2 (SMARCA2, BRM).; assay type: functional
[11] = target: T2, Rac GTPase-activating protein 1 (Homo sapiens, UniProt Q9H0H5); assay: blockers of MgcRacGAP-driven Rac1 GTP hydrolysis – biochemical, ADP Hunter fluorescence, primary and confirmatory, confirmation (AID 624330); assay type: functional
T2 sequence (Q9H0H5 whole entry): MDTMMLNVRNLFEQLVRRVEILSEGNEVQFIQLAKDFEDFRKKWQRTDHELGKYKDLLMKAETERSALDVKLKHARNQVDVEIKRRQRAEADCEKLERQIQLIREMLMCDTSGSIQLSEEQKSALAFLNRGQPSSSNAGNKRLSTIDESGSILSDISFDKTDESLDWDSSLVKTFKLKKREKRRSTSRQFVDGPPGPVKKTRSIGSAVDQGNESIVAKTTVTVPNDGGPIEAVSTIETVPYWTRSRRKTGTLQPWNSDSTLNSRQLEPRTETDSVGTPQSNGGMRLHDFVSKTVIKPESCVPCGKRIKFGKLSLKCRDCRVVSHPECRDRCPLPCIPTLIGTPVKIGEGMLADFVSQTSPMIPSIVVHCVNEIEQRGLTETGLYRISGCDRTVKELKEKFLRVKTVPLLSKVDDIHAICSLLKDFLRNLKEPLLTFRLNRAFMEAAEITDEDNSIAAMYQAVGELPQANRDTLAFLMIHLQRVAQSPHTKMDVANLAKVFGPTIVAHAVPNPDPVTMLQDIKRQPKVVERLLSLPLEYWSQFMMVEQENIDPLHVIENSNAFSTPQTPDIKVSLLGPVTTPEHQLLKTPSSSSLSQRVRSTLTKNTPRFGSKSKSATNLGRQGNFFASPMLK

[12] = viability loss in HeLa cells – cytotoxicity control for MgcRacGAP inhibitor project, dose response (AID 624300); assay type: functional
[13] = target: T3, Sentrin-specific protease 1 (Homo sapiens, UniProt Q9P0U3); assay: Dose response confirmation of small molecule inhibitors of the catalytic domain of the SUMO protease, SENP1 in a FRET assay.; assay type: functional; conditions: read-out: IC50_Mean
T3 sequence (Q9P0U3 whole entry, the tested form may be a part): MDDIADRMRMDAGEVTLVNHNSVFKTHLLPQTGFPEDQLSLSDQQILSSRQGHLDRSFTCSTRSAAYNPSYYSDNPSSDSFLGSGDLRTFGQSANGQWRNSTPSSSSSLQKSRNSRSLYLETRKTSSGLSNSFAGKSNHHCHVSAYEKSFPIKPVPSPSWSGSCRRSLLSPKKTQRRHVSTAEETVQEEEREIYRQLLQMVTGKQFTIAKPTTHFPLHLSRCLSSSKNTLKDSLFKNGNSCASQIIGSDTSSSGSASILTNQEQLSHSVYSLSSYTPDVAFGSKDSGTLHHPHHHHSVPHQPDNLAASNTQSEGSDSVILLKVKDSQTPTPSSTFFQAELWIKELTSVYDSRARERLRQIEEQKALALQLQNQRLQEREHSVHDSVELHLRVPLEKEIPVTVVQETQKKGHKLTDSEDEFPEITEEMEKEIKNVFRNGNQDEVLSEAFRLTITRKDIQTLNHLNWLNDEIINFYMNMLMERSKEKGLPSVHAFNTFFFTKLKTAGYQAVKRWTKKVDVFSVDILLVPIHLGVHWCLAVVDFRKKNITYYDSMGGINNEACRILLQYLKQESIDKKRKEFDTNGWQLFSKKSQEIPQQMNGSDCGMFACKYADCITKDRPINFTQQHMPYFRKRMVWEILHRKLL

[14] = target: T3, Sentrin-specific protease 1; assay: SENP1 catalytic domain blockers, concentration series – biochemical, kinetic FRET, dose response (AID 651697); assay type: functional; conditions: read-out: IC50_Mean
[15] = target: T4, Voltage-gated N-type calcium channel alpha-1B subunit/Amyloid beta A4 precursor protein-binding family A member 1 (Homo sapiens, UniProt Q00975+Q02410); assay type: protein assay
T4 sequence (Q00975 whole entry): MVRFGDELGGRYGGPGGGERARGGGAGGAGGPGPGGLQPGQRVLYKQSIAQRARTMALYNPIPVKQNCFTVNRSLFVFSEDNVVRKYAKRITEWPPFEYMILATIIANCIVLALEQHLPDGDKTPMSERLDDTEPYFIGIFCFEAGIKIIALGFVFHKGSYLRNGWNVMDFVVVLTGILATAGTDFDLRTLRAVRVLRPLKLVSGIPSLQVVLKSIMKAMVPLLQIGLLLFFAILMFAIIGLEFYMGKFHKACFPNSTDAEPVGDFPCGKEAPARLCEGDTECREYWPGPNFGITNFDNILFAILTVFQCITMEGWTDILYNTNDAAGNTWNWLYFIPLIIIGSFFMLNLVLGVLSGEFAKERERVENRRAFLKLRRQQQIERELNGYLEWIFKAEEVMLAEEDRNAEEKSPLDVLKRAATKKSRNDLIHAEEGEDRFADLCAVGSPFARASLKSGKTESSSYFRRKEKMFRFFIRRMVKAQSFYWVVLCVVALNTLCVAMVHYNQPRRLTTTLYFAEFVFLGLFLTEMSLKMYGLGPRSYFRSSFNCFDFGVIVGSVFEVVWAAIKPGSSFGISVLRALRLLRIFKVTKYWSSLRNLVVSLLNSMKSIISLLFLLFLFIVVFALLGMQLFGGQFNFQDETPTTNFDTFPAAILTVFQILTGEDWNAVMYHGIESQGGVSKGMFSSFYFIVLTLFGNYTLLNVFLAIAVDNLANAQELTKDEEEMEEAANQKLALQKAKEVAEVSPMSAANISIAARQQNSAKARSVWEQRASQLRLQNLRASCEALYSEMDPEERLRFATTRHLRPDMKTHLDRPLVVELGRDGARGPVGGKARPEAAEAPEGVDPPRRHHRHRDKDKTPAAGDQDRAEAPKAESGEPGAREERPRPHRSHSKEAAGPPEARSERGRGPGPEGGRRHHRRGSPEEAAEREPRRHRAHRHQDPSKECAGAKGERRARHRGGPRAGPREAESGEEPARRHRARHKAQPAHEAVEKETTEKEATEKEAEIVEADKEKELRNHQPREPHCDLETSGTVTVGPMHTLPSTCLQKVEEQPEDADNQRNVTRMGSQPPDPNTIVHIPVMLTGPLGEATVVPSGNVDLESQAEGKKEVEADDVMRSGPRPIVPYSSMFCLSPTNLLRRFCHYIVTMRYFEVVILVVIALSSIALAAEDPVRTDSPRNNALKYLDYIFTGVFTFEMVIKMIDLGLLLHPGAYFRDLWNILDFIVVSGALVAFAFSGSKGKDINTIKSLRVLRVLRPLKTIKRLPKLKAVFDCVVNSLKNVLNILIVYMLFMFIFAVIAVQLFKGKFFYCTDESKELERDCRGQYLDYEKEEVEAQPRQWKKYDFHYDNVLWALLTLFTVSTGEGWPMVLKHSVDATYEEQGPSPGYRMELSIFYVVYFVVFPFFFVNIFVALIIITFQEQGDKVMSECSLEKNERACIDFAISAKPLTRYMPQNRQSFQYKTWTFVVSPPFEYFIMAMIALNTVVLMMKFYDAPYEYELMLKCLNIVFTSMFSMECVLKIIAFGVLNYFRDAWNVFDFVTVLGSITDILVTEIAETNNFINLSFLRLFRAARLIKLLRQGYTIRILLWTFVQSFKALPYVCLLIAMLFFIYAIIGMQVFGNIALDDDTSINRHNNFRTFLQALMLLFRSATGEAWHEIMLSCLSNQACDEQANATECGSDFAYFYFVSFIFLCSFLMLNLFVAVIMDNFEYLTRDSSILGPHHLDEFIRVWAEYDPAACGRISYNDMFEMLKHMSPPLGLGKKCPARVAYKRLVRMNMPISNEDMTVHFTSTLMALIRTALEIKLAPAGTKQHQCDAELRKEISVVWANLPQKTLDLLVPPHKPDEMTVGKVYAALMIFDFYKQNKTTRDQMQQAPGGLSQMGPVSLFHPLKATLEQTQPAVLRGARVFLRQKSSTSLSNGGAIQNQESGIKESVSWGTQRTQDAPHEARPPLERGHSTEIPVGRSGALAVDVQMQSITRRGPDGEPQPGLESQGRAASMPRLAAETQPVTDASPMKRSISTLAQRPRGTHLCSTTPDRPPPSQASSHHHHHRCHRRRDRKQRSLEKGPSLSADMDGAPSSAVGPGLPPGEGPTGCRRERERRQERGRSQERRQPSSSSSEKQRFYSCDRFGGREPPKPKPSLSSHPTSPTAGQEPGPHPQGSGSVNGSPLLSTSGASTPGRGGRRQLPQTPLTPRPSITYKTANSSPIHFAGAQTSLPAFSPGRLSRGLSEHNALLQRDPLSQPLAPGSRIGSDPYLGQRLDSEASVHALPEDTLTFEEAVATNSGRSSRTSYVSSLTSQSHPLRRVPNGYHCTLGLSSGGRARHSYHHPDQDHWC
T4 sequence (Q02410 whole entry): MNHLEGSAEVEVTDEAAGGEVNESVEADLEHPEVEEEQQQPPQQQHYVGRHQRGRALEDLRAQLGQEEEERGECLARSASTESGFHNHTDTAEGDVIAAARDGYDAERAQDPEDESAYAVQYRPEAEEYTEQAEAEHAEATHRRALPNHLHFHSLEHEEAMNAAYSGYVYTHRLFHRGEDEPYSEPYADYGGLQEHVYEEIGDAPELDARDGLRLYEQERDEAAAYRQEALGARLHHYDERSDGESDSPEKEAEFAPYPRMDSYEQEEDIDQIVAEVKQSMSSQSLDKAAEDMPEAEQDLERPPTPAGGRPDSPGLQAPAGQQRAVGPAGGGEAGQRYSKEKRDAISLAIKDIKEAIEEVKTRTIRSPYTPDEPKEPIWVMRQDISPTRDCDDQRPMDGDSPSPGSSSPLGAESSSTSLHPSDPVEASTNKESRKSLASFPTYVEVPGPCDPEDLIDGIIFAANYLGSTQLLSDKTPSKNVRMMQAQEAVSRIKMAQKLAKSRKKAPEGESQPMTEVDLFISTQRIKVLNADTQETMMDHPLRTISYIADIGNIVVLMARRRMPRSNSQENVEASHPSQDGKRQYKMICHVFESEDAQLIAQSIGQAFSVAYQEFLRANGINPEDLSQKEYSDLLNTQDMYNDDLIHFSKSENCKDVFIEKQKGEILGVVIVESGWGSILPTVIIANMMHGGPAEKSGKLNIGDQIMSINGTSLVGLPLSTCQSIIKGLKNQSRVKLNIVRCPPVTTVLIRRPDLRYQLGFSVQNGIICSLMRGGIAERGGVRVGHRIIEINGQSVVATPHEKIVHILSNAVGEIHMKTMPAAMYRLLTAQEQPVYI

[16] = target: Tyrosine-protein phosphatase non-receptor type 22 (Homo sapiens, UniProt Q9Y2R2); assay: lymphoid phosphatase LYP inhibitors – biochemical, selectivity assay for STEP inhibitor project, dose response (AID 624241); assay type: functional
[17] = target: Tyrosine-protein phosphatase non-receptor type 5 (Homo sapiens, UniProt P54829); assay: PTPN5 enzyme inhibition – biochemical, fluorescence intensity, uHTS hits, confirmation (AID 602372); assay type: functional; conditions: read-out: IC50_Mean
[18] = target: T5, Small ubiquitin-related modifier 1 (Homo sapiens, UniProt P63165); assay: SUMO1 protein interaction blockers, potency – biochemical, fluorescence polarization, uHTS hits, dose response (AID 624382); assay type: functional; conditions: read-out: IC50_Mean
T5 sequence (P63165 whole entry): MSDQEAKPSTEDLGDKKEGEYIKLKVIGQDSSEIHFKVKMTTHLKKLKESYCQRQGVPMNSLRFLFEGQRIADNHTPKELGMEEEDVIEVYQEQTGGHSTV

[19] = target: Tyrosine-protein phosphatase non-receptor type 11 (Homo sapiens, UniProt Q06124); assay: PTPN11 enzyme inhibitors – biochemical, selectivity assay for STEP inhibitor project, dose response (AID 602367); assay type: functional; conditions: read-out: IC50_Mean
Tyrosine-protein phosphatase non-receptor type 11, sequence (Q06124 whole entry): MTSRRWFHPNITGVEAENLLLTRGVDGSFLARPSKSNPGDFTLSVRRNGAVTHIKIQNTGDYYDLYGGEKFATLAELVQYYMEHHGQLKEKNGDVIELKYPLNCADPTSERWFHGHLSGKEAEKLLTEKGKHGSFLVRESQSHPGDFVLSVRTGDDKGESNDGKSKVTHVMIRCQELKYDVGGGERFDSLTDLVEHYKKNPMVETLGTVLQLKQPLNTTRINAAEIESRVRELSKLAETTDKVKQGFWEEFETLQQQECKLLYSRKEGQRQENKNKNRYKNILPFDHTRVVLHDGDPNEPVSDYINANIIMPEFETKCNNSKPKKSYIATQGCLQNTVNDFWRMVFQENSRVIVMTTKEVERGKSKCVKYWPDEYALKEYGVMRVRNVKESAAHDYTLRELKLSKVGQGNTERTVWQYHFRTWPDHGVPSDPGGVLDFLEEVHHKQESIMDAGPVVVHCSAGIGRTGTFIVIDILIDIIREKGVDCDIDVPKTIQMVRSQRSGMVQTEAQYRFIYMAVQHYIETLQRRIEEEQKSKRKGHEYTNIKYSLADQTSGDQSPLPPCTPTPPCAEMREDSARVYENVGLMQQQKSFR

SUMO-activating enzyme [20] = target: T6, SUMO-activating enzyme (Homo sapiens, UniProt Q9UBT2); assay: blockers of SAE1/SAE2–UBC9 SUMO transfer – biochemical, HTRF, uHTS, primary screen (AID 2006); assay type: protein-complex assay
SUMO-activating enzyme [21] = target: T6, SUMO-activating enzyme; assay: blockers of UBC9-mediated SUMO conjugation – biochemical, AlphaScreen, SUMOylation inhibitor project, confirmation (AID 2018); assay type: functional
[22] = target: T5, Small ubiquitin-related modifier 1; assay: SUMO1 protein-protein binding blockers, potency – biochemical, FRET, dose response (AID 624383); assay type: functional; conditions: read-out: IC50_Mean
[23] = target: Dual specificity protein phosphatase 3 (Homo sapiens, UniProt P51452); assay: VHR phosphatase inhibition, dose response, selectivity assay for STEP inhibitor project, biochemical (AID 602374); assay type: functional; conditions: read-out: IC50_Mean
Dual specificity protein phosphatase 3, sequence (P51452 whole entry): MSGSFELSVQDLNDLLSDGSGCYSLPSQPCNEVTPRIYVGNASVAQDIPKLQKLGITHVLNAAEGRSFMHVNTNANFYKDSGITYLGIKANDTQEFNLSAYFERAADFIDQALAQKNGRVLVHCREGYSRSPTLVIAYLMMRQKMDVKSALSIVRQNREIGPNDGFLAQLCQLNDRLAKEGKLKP

[24] = target: T4, Voltage-gated N-type calcium channel alpha-1B subunit/Amyloid beta A4 precursor protein-binding family A member 1; assay type: protein assay; remark: listed apart in the source
cells [25] = assay type: functional, cell-based
[26] = target: T7, Trace amine-associated receptor 1 (Homo sapiens, UniProt Q96RJ0); assay: Fluorescence-based cell-based high throughput dose response assay to identify agonists of the human trace amine associated receptor 1 (TAAR1).; assay type: functional
T7 sequence (Q96RJ0 whole entry): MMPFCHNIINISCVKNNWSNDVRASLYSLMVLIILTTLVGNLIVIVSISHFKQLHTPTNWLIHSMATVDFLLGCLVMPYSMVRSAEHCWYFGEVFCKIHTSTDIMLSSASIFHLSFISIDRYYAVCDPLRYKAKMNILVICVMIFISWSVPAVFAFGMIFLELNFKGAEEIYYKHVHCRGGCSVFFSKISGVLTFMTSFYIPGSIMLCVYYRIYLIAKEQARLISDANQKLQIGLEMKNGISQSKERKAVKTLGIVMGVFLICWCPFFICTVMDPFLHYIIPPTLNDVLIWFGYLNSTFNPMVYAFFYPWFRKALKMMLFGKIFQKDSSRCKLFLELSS

cells [27] = assay type: functional, cell-based; remark: listed apart in the source
[28] = target: T7, Trace amine-associated receptor 1; assay: Counterscreen for agonists of the human trace amine associated receptor 1 (hTAAR1): Fluorescence-based cell-based high throughput dose response assay to identify hTAAR1 agonist that also desensitize TAAR1 receptor response.; assay type: functional
Beta-lactamase [29] = target: Beta-lactamase (Salmonella choleraesuis (strain SC-B67), UniProt Q5J463)
Beta-lactamase [30] = target: Beta-lactamase (Pseudomonas aeruginosa, UniProt Q79MP6);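 also: biochemical dose-response test of metallo-beta-lactamase enzyme inhibition, read out by epi-absorbance; purified recombinant IMP-1 metallo-beta-lactamase with nitrocefin as substrate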

With `COc1ccc(Nc2nc(N3CCCC3)nc3ccccc23)c(OC)c1` the EC50 [1] was 1.2 µM (active), the AC50 [2] was 6.47 µM (active) and the EC50 [3] was 22.2 µM (active). The EC50 [4] was 1.97 µM (active), the AC50 [5] was 35.6 µM (active) and the EC50 [6] was 0.627 µM (active). For the same compound, the AC50 [7] was 63.3 µM (active).
In the case of `COc1ccc(CN2CCN(c3ncccn3)CC2)c(C)c1C`, the EC50 (Mu-type opioid receptor) was 92.5 µM (inactive) and the EC50 [8] was 0.263 µM (active).
With `CC(=O)c1ccc(OCCCC(=O)OCc2nnc(-c3ccc(Cl)cc3)o2)cc1` the EC50 [9] was > 91.1 µM (inactive) and the EC50 [10] was > 91.1 µM (inactive).
For `Cn1c(-c2ccc3c(c2)OCO3)cnc1NCc1ccccc1Cl`, the IC50 [11] was 72 µM (active) and the CC50 [12] was 100 µM (active).
With `O=C1C=C(Nc2ccc(Cl)cc2)C(=O)N1c1ccc(Cl)cc1` the IC50 [13] was 12.5 µM (active) and the IC50 [14] was 21 µM (inactive).
With `CCCc1cc(=O)oc2cc(OCC(=O)Nc3ccc(S(N)(=O)=O)cc3)ccc12` the IC50 [15] was > 50 µM (inactive), the IC50 [16] was 31 µM (inactive) and the IC50 [17] was 15.5 µM (active). The IC50 [18] was > 66.6 µM (inactive), the IC50 [19] was 1.15 µM (active) and the IC50 (SUMO-activating enzyme [20]) was 11.5 µM (active). The IC50 (SUMO-activating enzyme [21]) was 6.11 µM (active), the IC50 [22] was 6.44 µM (active) and the IC50 [23] was 5.69 µM (active). The IC50 [24] was 14.2 µM (active).
For `O=C(O)C1CCCCC1C(=O)NCCc1cccc(Cl)c1` (stereo unspecified), the IC50 (cells [25]) was > 29.9 µM (inactive), the EC50 [26] was 2.5 µM (active) and the EC50 (cells [27]) was > 29.9 µM (inactive). The IC50 [28] was > 29.9 µM (inactive).
With `CC(C)C(CCN1C(=O)c2ccccc2C1=O)c1ccco1` (stereo unspecified) the IC50 (Beta-lactamase [29]) was > 59.6 µM (inactive) and the IC50 (Beta-lactamase [30]) was 36.8 µM (inactive).
